Data published in ChEMBL document CHEMBL1201861, “Genomics of Drug Sensitity in Cancer screening data, Wellcome Trust Sanger Institute”.

The compounds below were run on COLO-792 (assay: cells). Details: Homo sapiens.
Type: functional, cell-based
Description: SANGER: Inhibition of human COLO-792 cell growth in a cell viability assay.

With `NC(=O)c1ccc(N(C(N)=O)c2c(F)cccc2F)nc1-c1ccc(F)cc1F` [VX-702] as the compound, how does the IC50 read?
Its IC50 is > 2 µM.

The compounds below were run on COR-L105 (assay: cells). Details: Homo sapiens.
Type: functional, cell-based
Description: SANGER: Inhibition of human COR-L105 cell growth in a cell viability assay.

Which IC50 does the source give for `NC(=O)c1ccc(N(C(N)=O)c2c(F)cccc2F)nc1-c1ccc(F)cc1F` [VX-702] here?
The IC50 was > 2 µM.

These compounds were tested on CP50-MEL-B (assay: cells). Details: Homo sapiens.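 Also: growth inhibition of the human cell line, measured with a cell viability read-out.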
Type: functional, cell-based
Description: SANGER: Inhibition of human CP50-MEL-B cell growth in a cell viability assay.

How did the IC50 turn out when `NC(=O)c1ccc(N(C(N)=O)c2c(F)cccc2F)nc1-c1ccc(F)cc1F` [VX-702] was run?
The IC50 was > 2 µM.

What follows are compounds tested on CP66-MEL (assay: cells). Details: Homo sapiens.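 Also: growth inhibition of CP66-MEL cells determined in a cell viability assay.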
Type: functional, cell-based
Description: SANGER: Inhibition of human CP66-MEL cell growth in a cell viability assay.

For `NC(=O)c1ccc(N(C(N)=O)c2c(F)cccc2F)nc1-c1ccc(F)cc1F` [VX-702], which IC50 is on record?
The IC50 was > 2 µM.

Each compound was assayed on D-336MG (assay: cells). Details: Homo sapiens, D-336MG.
Type: functional, cell-based, Homo sapiens
Description: SANGER: Inhibition of human D-336MG cell growth in a cell viability assay.

`NC(=O)c1ccc(N(C(N)=O)c2c(F)cccc2F)nc1-c1ccc(F)cc1F` [VX-702] was tested. Which IC50 did it give?
The IC50 was > 2 µM.

Each compound was assayed on DBTRG-05MG (assay: cells). Details: Homo sapiens.
Type: functional, cell-based
Description: SANGER: Inhibition of human DBTRG-05MG cell growth in a cell viability assay.

How did the IC50 turn out when `NC(=O)c1ccc(N(C(N)=O)c2c(F)cccc2F)nc1-c1ccc(F)cc1F` [VX-702] was run?
Its IC50 is > 2 µM.

What follows are compounds tested on ESS-1 (assay: cells). Details: Homo sapiens.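 Also: growth inhibition of human ESS-1 cells, read out by a cell viability assay.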
Type: functional, cell-based
Description: SANGER: Inhibition of human ESS-1 cell growth in a cell viability assay.

With `NC(=O)c1ccc(N(C(N)=O)c2c(F)cccc2F)nc1-c1ccc(F)cc1F` [VX-702] as the compound, how does the IC50 read?
Its IC50 is > 2 µM.

The compounds below were run on G-361 (assay: cells). Details: Homo sapiens.
Type: functional, cell-based

With `NC(=O)c1ccc(N(C(N)=O)c2c(F)cccc2F)nc1-c1ccc(F)cc1F` [VX-702] as the compound, how does the IC50 read?
The IC50 was 1.5 µM.

The compounds below were run on GMS-10 (assay: cells). Details: Homo sapiens.
Type: functional, cell-based
Description: SANGER: Inhibition of human GMS-10 cell growth in a cell viability assay.

For `NC(=O)c1ccc(N(C(N)=O)c2c(F)cccc2F)nc1-c1ccc(F)cc1F` [VX-702], which IC50 is on record?
The IC50 was > 2 µM.

The compounds below were run on HCC1419 (assay: cells). Details: Homo sapiens.
Type: functional, cell-based
Description: SANGER: Inhibition of human HCC1419 cell growth in a cell viability assay.

How did the IC50 turn out when `NC(=O)c1ccc(N(C(N)=O)c2c(F)cccc2F)nc1-c1ccc(F)cc1F` [VX-702] was run?
Its IC50 is > 2 µM.

The compounds below were run on HSC-4 (assay: cells). Details: Homo sapiens.
Type: functional, cell-based
Description: SANGER: Inhibition of human HSC-4 cell growth in a cell viability assay.

How did the IC50 turn out when `NC(=O)c1ccc(N(C(N)=O)c2c(F)cccc2F)nc1-c1ccc(F)cc1F` [VX-702] was run?
The IC50 was > 2 µM.

The compounds below were run on HT-1080 (assay: cells). Details: Homo sapiens.
Type: functional, cell-based
Description: SANGER: Inhibition of human HT-1080 cell growth in a cell viability assay.

Which IC50 does the source give for `NC(=O)c1ccc(N(C(N)=O)c2c(F)cccc2F)nc1-c1ccc(F)cc1F` [VX-702] here?
Its IC50 is > 2 µM.

What follows are compounds tested on Hs-578T (assay: cells). Details: Homo sapiens.
Type: functional, cell-based
Description: SANGER: Inhibition of human Hs-578-T cell growth in a cell viability assay.

For `NC(=O)c1ccc(N(C(N)=O)c2c(F)cccc2F)nc1-c1ccc(F)cc1F` [VX-702], which IC50 is on record?
Its IC50 is > 2 µM.

These compounds were tested on HuO9 (assay: cells). Details: Homo sapiens.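 Also: growth inhibition of HuO9 cells, read out with a cell viability assay.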
Type: functional, cell-based
Description: SANGER: Inhibition of human HuO9 cell growth in a cell viability assay.

How did the IC50 turn out when `NC(=O)c1ccc(N(C(N)=O)c2c(F)cccc2F)nc1-c1ccc(F)cc1F` [VX-702] was run?
The IC50 was > 2 µM.

What follows are compounds tested on KOSC-2 (assay: cells). Details: Homo sapiens.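 Also: growth inhibition of KOSC-2 cells, read out by a cell viability assay.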
Type: functional, cell-based
Description: SANGER: Inhibition of human KOSC-2 cell growth in a cell viability assay.

With `NC(=O)c1ccc(N(C(N)=O)c2c(F)cccc2F)nc1-c1ccc(F)cc1F` [VX-702] as the compound, how does the IC50 read?
The IC50 was > 2 µM.

These compounds were tested on KYSE-180 (assay: cells). Details: Homo sapiens.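 Also: growth inhibition of KYSE-180 cells, read out with a cell viability assay.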
Type: functional, cell-based
Description: SANGER: Inhibition of human KYSE-180 cell growth in a cell viability assay.

Which IC50 does the source give for `NC(=O)c1ccc(N(C(N)=O)c2c(F)cccc2F)nc1-c1ccc(F)cc1F` [VX-702] here?
The IC50 was > 2 µM.

The compounds below were run on KYSE-410 (assay: cells). Details: Homo sapiens.
Type: functional, cell-based
Description: SANGER: Inhibition of human KYSE-410 cell growth in a cell viability assay.

With `NC(=O)c1ccc(N(C(N)=O)c2c(F)cccc2F)nc1-c1ccc(F)cc1F` [VX-702] as the compound, how does the IC50 read?
Its IC50 is > 2 µM.

Each compound was assayed on KYSE-450 (assay: cells). Details: Homo sapiens.
Type: functional, cell-based
Description: SANGER: Inhibition of human KYSE-450 cell growth in a cell viability assay.

With `NC(=O)c1ccc(N(C(N)=O)c2c(F)cccc2F)nc1-c1ccc(F)cc1F` [VX-702] as the compound, how does the IC50 read?
Its IC50 is > 2 µM.

The compounds below were run on MDA-MB-175-VII (assay: cells). Details: Homo sapiens.
Type: functional, cell-based

How did the IC50 turn out when `NC(=O)c1ccc(N(C(N)=O)c2c(F)cccc2F)nc1-c1ccc(F)cc1F` [VX-702] was run?
The IC50 was > 2 µM.

These compounds were tested on MDA-MB-361 (assay: cells). Details: Homo sapiens.
Type: functional, cell-based

`NC(=O)c1ccc(N(C(N)=O)c2c(F)cccc2F)nc1-c1ccc(F)cc1F` [VX-702] was tested. Which IC50 did it give?
The IC50 was > 2 µM.

What follows are compounds tested on MDA-MB-415 (assay: cells). Details: Homo sapiens.
Type: functional, cell-based

`NC(=O)c1ccc(N(C(N)=O)c2c(F)cccc2F)nc1-c1ccc(F)cc1F` [VX-702] was tested. Which IC50 did it give?
Its IC50 is > 2 µM.

These compounds were tested on NCI-H1563 (assay: cells). Details: Homo sapiens.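 Also: growth inhibition of human NCI-H1563 cells, read out with a cell viability assay.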
Type: functional, cell-based
Description: SANGER: Inhibition of human NCI-H1563 cell growth in a cell viability assay.

How did the IC50 turn out when `NC(=O)c1ccc(N(C(N)=O)c2c(F)cccc2F)nc1-c1ccc(F)cc1F` [VX-702] was run?
The IC50 was > 2 µM.

These compounds were tested on NCI-H2009 (assay: cells). Details: Homo sapiens.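 Also: cell viability assay measuring inhibition of NCI-H2009 cell growth.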
Type: functional, cell-based
Description: SANGER: Inhibition of human NCI-H2009 cell growth in a cell viability assay.

How did the IC50 turn out when `NC(=O)c1ccc(N(C(N)=O)c2c(F)cccc2F)nc1-c1ccc(F)cc1F` [VX-702] was run?
Its IC50 is > 2 µM.

Each compound was assayed on NCI-H650 (assay: cells). Details: Homo sapiens.
Type: functional, cell-based
Description: SANGER: Inhibition of human NCI-H650 cell growth in a cell viability assay.

For `NC(=O)c1ccc(N(C(N)=O)c2c(F)cccc2F)nc1-c1ccc(F)cc1F` [VX-702], which IC50 is on record?
The IC50 was > 2 µM.

The compounds below were run on NUGC-3 (assay: cells). Details: Homo sapiens.
Type: functional, cell-based
Description: SANGER: Inhibition of human NUGC-3 cell growth in a cell viability assay.

For `NC(=O)c1ccc(N(C(N)=O)c2c(F)cccc2F)nc1-c1ccc(F)cc1F` [VX-702], which IC50 is on record?
The IC50 was > 2 µM.

The compounds below were run on OE19 (assay: cells). Details: Homo sapiens.
Type: functional, cell-based
Description: SANGER: Inhibition of human OE19 cell growth in a cell viability assay.

`NC(=O)c1ccc(N(C(N)=O)c2c(F)cccc2F)nc1-c1ccc(F)cc1F` [VX-702] was tested. Which IC50 did it give?
The IC50 was > 2 µM.

These compounds were tested on PANC-03-27 (assay: cells). Details: Homo sapiens.
Type: functional, cell-based
Description: SANGER: Inhibition of human PANC-03-27 cell growth in a cell viability assay.

How did the IC50 turn out when `NC(=O)c1ccc(N(C(N)=O)c2c(F)cccc2F)nc1-c1ccc(F)cc1F` [VX-702] was run?
Its IC50 is > 2 µM.

The compounds below were run on RPMI-7951 (assay: cells). Details: Homo sapiens.
Type: functional, cell-based
Description: SANGER: Inhibition of human RPMI-7951 cell growth in a cell viability assay.

How did the IC50 turn out when `NC(=O)c1ccc(N(C(N)=O)c2c(F)cccc2F)nc1-c1ccc(F)cc1F` [VX-702] was run?
The IC50 was > 2 µM.

These compounds were tested on SAS (assay: cells). Details: Homo sapiens.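 Also: growth inhibition of SAS cells, read out with a cell viability assay.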
Type: functional, cell-based
Description: SANGER: Inhibition of human SAS cell growth in a cell viability assay.

`NC(=O)c1ccc(N(C(N)=O)c2c(F)cccc2F)nc1-c1ccc(F)cc1F` [VX-702] was tested. Which IC50 did it give?
Its IC50 is > 2 µM.

What follows are compounds tested on SJRH30 (assay: cells). Details: Homo sapiens.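 Also: growth inhibition of human SJRH30 cells, read out with a cell viability assay.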
Type: functional, cell-based
Description: SANGER: Inhibition of human SJRH30 cell growth in a cell viability assay.

With `NC(=O)c1ccc(N(C(N)=O)c2c(F)cccc2F)nc1-c1ccc(F)cc1F` [VX-702] as the compound, how does the IC50 read?
The IC50 was > 2 µM.

Each compound was assayed on SK-LU-1 (assay: cells). Details: Homo sapiens.
Type: functional, cell-based
Description: SANGER: Inhibition of human SK-LU-1 cell growth in a cell viability assay.

How did the IC50 turn out when `NC(=O)c1ccc(N(C(N)=O)c2c(F)cccc2F)nc1-c1ccc(F)cc1F` [VX-702] was run?
Its IC50 is > 2 µM.

Each compound was assayed on SKG-IIIa (assay: cells). Details: Homo sapiens.
Type: functional, cell-based
Description: SANGER: Inhibition of human SKG-IIIa cell growth in a cell viability assay.

`NC(=O)c1ccc(N(C(N)=O)c2c(F)cccc2F)nc1-c1ccc(F)cc1F` [VX-702] was tested. Which IC50 did it give?
The IC50 was > 2 µM.

These compounds were tested on SN12C (assay: cells). Details: Homo sapiens.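 Also: growth inhibition of human SN12C cells, measured by a cell viability assay.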
Type: functional, cell-based
Description: SANGER: Inhibition of human SN12C cell growth in a cell viability assay.

With `NC(=O)c1ccc(N(C(N)=O)c2c(F)cccc2F)nc1-c1ccc(F)cc1F` [VX-702] as the compound, how does the IC50 read?
Its IC50 is > 2 µM.

The compounds below were run on SW756 (assay: cells). Details: Homo sapiens.
Type: functional, cell-based
Description: SANGER: Inhibition of human SW756 cell growth in a cell viability assay.

With `NC(=O)c1ccc(N(C(N)=O)c2c(F)cccc2F)nc1-c1ccc(F)cc1F` [VX-702] as the compound, how does the IC50 read?
The IC50 was > 2 µM.

The compounds below were run on SiHa (assay: cells). Details: Homo sapiens.
Type: functional, cell-based
Description: SANGER: Inhibition of human SiHa cell growth in a cell viability assay.

Which IC50 does the source give for `NC(=O)c1ccc(N(C(N)=O)c2c(F)cccc2F)nc1-c1ccc(F)cc1F` [VX-702] here?
The IC50 was > 2 µM.

Each compound was assayed on 8505C (assay: cells). Details: Homo sapiens.
Type: functional, cell-based
Description: SANGER: Inhibition of human 8505C cell growth in a cell viability assay.

Which IC50 does the source give for `NC(=O)c1ccc(N(C(N)=O)c2c(F)cccc2F)nc1-c1ccc(F)cc1F` [VX-702] here?
Its IC50 is > 2 µM.

These compounds were tested on A 172 (assay: cells). Details: Homo sapiens.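 Also: growth inhibition of A172 cells, measured with a cell viability readout.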
Type: functional, cell-based
Description: SANGER: Inhibition of human A172 cell growth in a cell viability assay.

`NC(=O)c1ccc(N(C(N)=O)c2c(F)cccc2F)nc1-c1ccc(F)cc1F` [VX-702] was tested. Which IC50 did it give?
The IC50 was > 2 µM.

These compounds were tested on AGS (assay: cells). Details: Homo sapiens.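 Also: growth inhibition of AGS cells, determined with a cell viability assay.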
Type: functional, cell-based
Description: SANGER: Inhibition of human AGS cell growth in a cell viability assay.

`NC(=O)c1ccc(N(C(N)=O)c2c(F)cccc2F)nc1-c1ccc(F)cc1F` [VX-702] was tested. Which IC50 did it give?
The IC50 was 0.153 µM.

Each compound was assayed on AN3-CA (assay: cells). Details: Homo sapiens.
Type: functional, cell-based
Description: SANGER: Inhibition of human AN3-CA cell growth in a cell viability assay.

`NC(=O)c1ccc(N(C(N)=O)c2c(F)cccc2F)nc1-c1ccc(F)cc1F` [VX-702] was tested. Which IC50 did it give?
The IC50 was > 2 µM.

Each compound was assayed on BT-20 (assay: cells). Details: Homo sapiens.
Type: functional, cell-based
Description: SANGER: Inhibition of human BT-20 cell growth in a cell viability assay.

For `NC(=O)c1ccc(N(C(N)=O)c2c(F)cccc2F)nc1-c1ccc(F)cc1F` [VX-702], which IC50 is on record?
The IC50 was > 2 µM.

The compounds below were run on CAL-12T (assay: cells). Details: Homo sapiens.
Type: functional, cell-based
Description: SANGER: Inhibition of human CAL-12T cell growth in a cell viability assay.

`NC(=O)c1ccc(N(C(N)=O)c2c(F)cccc2F)nc1-c1ccc(F)cc1F` [VX-702] was tested. Which IC50 did it give?
The IC50 was > 2 µM.

These compounds were tested on U-118-MG (assay: cells). Details: Homo sapiens.
Type: functional, cell-based
Description: SANGER: Inhibition of human U-118-MG cell growth in a cell viability assay.

How did the IC50 turn out when `NC(=O)c1ccc(N(C(N)=O)c2c(F)cccc2F)nc1-c1ccc(F)cc1F` [VX-702] was run?
Its IC50 is > 2 µM.

Each compound was assayed on YAPC (assay: cells). Details: Homo sapiens.
Type: functional, cell-based
Description: SANGER: Inhibition of human YAPC cell growth in a cell viability assay.

With `NC(=O)c1ccc(N(C(N)=O)c2c(F)cccc2F)nc1-c1ccc(F)cc1F` [VX-702] as the compound, how does the IC50 read?
The IC50 was > 2 µM.

Each compound was assayed on COLO-678 (assay: cells). Details: Homo sapiens.
Type: functional, cell-based
Description: SANGER: Inhibition of human COLO-678 cell growth in a cell viability assay.

Which IC50 does the source give for `NC(=O)c1ccc(N(C(N)=O)c2c(F)cccc2F)nc1-c1ccc(F)cc1F` [VX-702] here?
The IC50 was > 2 µM.

What follows are compounds tested on COLO-679 (assay: cells). Details: Homo sapiens.
Type: functional, cell-based
Description: SANGER: Inhibition of human COLO-679 cell growth in a cell viability assay.

`NC(=O)c1ccc(N(C(N)=O)c2c(F)cccc2F)nc1-c1ccc(F)cc1F` [VX-702] was tested. Which IC50 did it give?
Its IC50 is > 2 µM.

These compounds were tested on COLO-680N (assay: cells). Details: Homo sapiens.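 Also: cell viability assay used to measure inhibition of COLO-680N cell growth.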
Type: functional, cell-based
Description: SANGER: Inhibition of human COLO-680N cell growth in a cell viability assay.

How did the IC50 turn out when `NC(=O)c1ccc(N(C(N)=O)c2c(F)cccc2F)nc1-c1ccc(F)cc1F` [VX-702] was run?
The IC50 was > 2 µM.
